Measured values taken from patent US9975944B2, “Synthetic peptides for the treatment of autoimmune diseases” (TEL HASHOMER MEDICAL RESEARCH INFRASTRUCTURE AND SERVICES …, priority 2013, dated 2018).

What was measured:
[1] = system: TNF-α; test: TNF-α gene expression in mononuclear cells derived from synovial fluid of RA patients, real-time PCR; assay type: cell-based, human; conditions: 24 h, compared to the non-citrullinated peptides
Experimental: (§1) To assess the effect of the Cit-ME peptide (SEQ ID NO: 1) on inflammatory related genes expression, peripheral blood mononuclear cells derived from synovial fluid rheumatoid arthritis patients were incubated with the Cit-ME multi-epitope citrullinated peptide for 24 h. The effect of the peptide on gene expression was compared also to the effect of infliximab, a TNF-α blocker, which is an antirheumatic drug that acts as an anti-inflammatory compound. […] Results were determined by real-time PCR.

[2] = system: FAS receptor; test: FAS mRNA expression in splenocytes of AIA rats, RT-PCR; assay type: in vivo, rat; conditions: compared to Non-Cit-ME and control groups
Experimental: To examine whether Cit-ME affects apoptosis through the FAS receptor pathway, FAS mRNA expression in splenocytes was evaluated (FIG. 14F), using the following RT-PCR primers: forward 5′-TGGCTGTCCTGCCTCTGGT-3′ (SEQ ID NO: 19) and reverse 5′-[…]-3′ (SEQ ID NO: 20).

[3] = system: IFN-γ; test: IFN-γ gene expression in mononuclear cells derived from synovial fluid of RA patients, real-time PCR; assay type: cell-based, human; conditions: 24 h, compared to the non-citrullinated peptides
Experimental: as §1

[4] = system: TGF-β; test: TGF-β gene expression in mononuclear cells derived from synovial fluid of RA patients, real-time PCR; assay type: cell-based, human; conditions: 24 h, compared to the non-citrullinated peptides
Experimental: as §1

[5] = system: T cells; test: T cells apoptosis in PBMC of RA patients, annexin V/PI FACS; assay type: cell-based, human; conditions: 24 hours, gated on PI negative cells, compared with matched non-citrullinated peptide
Experimental: To assess the ability of the citrullinated peptides to affect T cells apoptosis, peripheral blood mononuclear cells of rheumatoid arthritis patients were cultured in the presence of citrullinated, non-citrullinated peptides and Infliximab for 24 hours. Cells were double-stained for annexin V-fluorescein isothiocyanate (FITC) and PI-PE (apoptosis/necrosis markers) and analyzed by FACS. The results in FIG. 8 are presented after gating for PI negative cells (live cells). The β-Fib-Cit and Cit-ME (FIGS. 8A and 8B, respectively) induced T cells apoptosis (by 20% and 18%, respectively) as compared with the non-citrullinated peptides Non-Cit-β-Fib (FIG. 8D) and Non-Cit-ME (FIG. 8E). Infliximab induced apoptosis by 28% (FIG. 8C) as compared with the medium control (FIG. 8F).

[6] = system: CD4+CD25+Foxp3+ T cells; test: Regulatory T cell proportion in PBMC of RA patients, FACS; assay type: cell-based, human; conditions: 1.25 μg/ml peptide, 48 hours, compared with non-citrullinated matched peptide
Experimental: Given the observed immunomodulation of cytokines following incubation of peripheral blood mononuclear cells obtained from rheumatoid arthritis patients with citrullinated peptides, the citrullinated peptides were tested for their ability to exert an effect on the T regulatory population proportion. Peripheral blood mononuclear cells of rheumatoid arthritis patients were cultured in the presence of 1.25 μg/ml of the peptides (Fil-Cit, β-Fib-Cit, and Cit-ME; FIGS. 6A, 6B and 6E, respectively, and Fil-NC, β-Fib-NC and Non-Cit-ME; FIGS. 6C, 6D and 6G, respectively), and Infliximab (FIG. 6F) for 48 hours. Cells cultured with medium devoid of the peptides and Infliximab served as control (FIG. 6H). Thereafter, cells were stained for the expression of CD4, CD25, and FoxP3 and analyzed by FACS. […] Mean percentage of CD4^+CD25^+Foxp3^+ T cells in the presence of Infliximab was increased by 14% as compared to medium (FIG. 6F and FIG. 6H, respectively). Thus, citrullinated peptides are able to induce the expansion of the T regulatory cell population.

[7] = system: T cells derived from the spleen; test: Apoptosis of T cells from the spleen of AIA rats, Annexin V/PI staining; assay type: in vivo, rat; conditions: gated for PI and CD4+, two independent experiments, control 13±1%
Experimental: To assess apoptosis of T cells derived from the spleen of treated rats, the Annexin V/PI staining method was preformed. FIGS. 14A-14C are representative histograms of cells treated with Cit-Me (FIG. 14A), non-Cit-Me (FIG. 14B) or untreated (FIG. 14C). The histograms present apoptosis measured by Annexin V^+. First, cells were gated for PI and CD4^+ and next analyzed for percentage of Annexin-V positive cells. […] A significant increase (p<0.01) in the mean apoptotic rate was determined in cells from the spleen of Cit-ME treated rats (19.5±1.8%) in comparison with Non-Cit-ME or control (13.8±1.3% and 13±1%, respectively).

[8] = system: anti cit-β-fibrinogen ACPA; test: Peptide inhibition assay in ELISA, plates coated with cit-β-fibrinogen; design: species or system human; conditions: sera of ACPA-positive RA patients diluted to about 50% binding OD, 2 h preincubation at room temperature
Experimental: Peptide inhibition assay in ELISA was used to confirm the cross-reactivity of the Cit-ME peptide to the following anti-citrullinated protein antibodies (ACPA): anti citrullinated filaggrin, anti cit-β-fibrinogen, anti cit-collagen and anti cit-vimentin. Sera were obtained from ACPA RA patients and samples with highly positive ACPA levels were selected (≥100 U/ml) using commercial CCP ELISA test (INOVA). ELISA test was performed with each of the citrullinated peptides: cit-filaggrin (HQCHQESTCitGRSRGRCGRSGS) set forth in SEQ ID NO: 3, cit-β-fibrinogen (CitPAPPPISGGGYCitACit) set forth in SEQ ID NO: 2, cit-collagen (ACitGLTGCitPGDAK) set forth in SEQ ID NO: 21 and cit-vimentin (SAVRACitSSVPGVRK) set forth in SEQ ID NO: 22. Sera were diluted in PBS to obtain a reactivity of approximately 50% binding OD under standard assay conditions. Increasing concentrations of Cit-ME peptide were added to the diluted sera and incubated for two hours at room temperature. Specimens were then assayed in ELISA plates coated with each one of the peptides. […] Thus, ACPA have binding specificity to Cit-ME.

[9] = system: AIA rats; test: Histological signs of arthritis in ankle joints of AIA rats; assay type: in vivo, rat; conditions: day 28 post disease induction, H&E, untreated 1.75±0.41
Experimental: To evaluate the histological signs of arthritis, rats were sacrificed and ankle joints were collected on day 28 post disease induction. The joints were fixed immediately for 24 hours in 4% paraformaldehyde, then decalcified in rapid bone decalcifier (RDO; Apex Engineering, Plainfield, Ill., USA) for 6 hours at room temperature, and further fixed in 4% paraformaldehyde before embedding in paraffin. Sections (5 μm thick) were rehydrated in a graded ethanol series and stained with haematoxylin & eosin (H&E). FIGS. 11A to 11C show representative H&E stained joint tissue sections (magnification ×100). Arrowheads denote the infiltrated zones, scale bar=200 μm. The specimens were scored for severity of inflammation in the synovium, pannus formation, cartilage, and bone erosion. A close correlation between the clinical signs and the histopathological findings was found.

amount of peptide sufficient to impair binding of specific ACPA to cit-β-fibrinogen [8]: 10 to 200 µg
Substance: VCitLCitSSVESTCitGRSCitPAPPPACitGLT [Cit-ME]
expression of TNF-α [1]: down-regulated
mean relative expression level of FAS mRNA [2]: significantly higher
expression of IFN-γ [3]: down-regulated
expression of TGF-β [4]: up-regulated
induction of T cells apoptosis [5]: 18%
increase in mean percentage of CD4+CD25+Foxp3+ T cells [6]: 12%
mean apoptotic rate (Annexin-V positive cells) [7]: 19.5±1.8%
histological inflammatory score [9]: 0.54±0.2
